Source: patent US20080009418A1, “Selective Inhibitors” (Alchemia LTD., priority 2004, published 2008)

Columns and labels:
[1] = molecular target: T1, Human melanin-concentrating hormone (MCH1) (Homo sapiens, UniProt Q99705); experiment: Radioligand binding, human melanin-concentrating hormone MCH1 membranes, FlashPlate, [125I]-S36057; conditions: compound at 10 μM; [125I]-S36057, FlashPlate
T1 construct: purchased Perkin Elmer Biosignal
How it was run: (§1)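 Cloned human receptor membranes were coated onto FlashPlate wells and incubated with radioligand and compound (added from a 0.5 mM DMSO daughter plate) for 1 hour at room temperature in the dark. Scintillation counting gave percent inhibition, with DMSO defining total and reference ligand defining non-specific binding.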

[2] = molecular target: T2, Human μ-opioid (MOP) (Homo sapiens, UniProt P35372); experiment: Radioligand binding, human μ-opioid (MOP) membranes, FlashPlate, [3H]-Naloxone; conditions: compound at 10 μM; [3H]-Naloxone, FlashPlate
T2 construct: purchased Perkin Elmer Biosignal
T2 sequence (P35372 whole entry): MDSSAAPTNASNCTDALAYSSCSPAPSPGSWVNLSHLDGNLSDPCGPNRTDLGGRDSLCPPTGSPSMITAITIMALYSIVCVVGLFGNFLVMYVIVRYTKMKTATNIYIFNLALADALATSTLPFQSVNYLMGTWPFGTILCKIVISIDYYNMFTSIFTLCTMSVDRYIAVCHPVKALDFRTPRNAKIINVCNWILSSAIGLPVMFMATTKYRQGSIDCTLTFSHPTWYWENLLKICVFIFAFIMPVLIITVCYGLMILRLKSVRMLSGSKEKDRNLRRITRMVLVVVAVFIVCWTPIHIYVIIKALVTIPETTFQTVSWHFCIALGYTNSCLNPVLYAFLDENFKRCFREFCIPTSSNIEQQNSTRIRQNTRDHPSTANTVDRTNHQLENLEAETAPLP
How it was run: as §1

[3] = molecular target: T3, Human neuropeptide Y (NPY-Y1) (Homo sapiens, UniProt P25929); experiment: Radioligand binding, human neuropeptide Y NPY-Y1 membranes, FlashPlate, [125I]-PYY; conditions: compound at 10 μM; [125I]-PYY, FlashPlate
T3 construct: purchased Perkin Elmer Biosignal
T3 sequence (P25929 1-384): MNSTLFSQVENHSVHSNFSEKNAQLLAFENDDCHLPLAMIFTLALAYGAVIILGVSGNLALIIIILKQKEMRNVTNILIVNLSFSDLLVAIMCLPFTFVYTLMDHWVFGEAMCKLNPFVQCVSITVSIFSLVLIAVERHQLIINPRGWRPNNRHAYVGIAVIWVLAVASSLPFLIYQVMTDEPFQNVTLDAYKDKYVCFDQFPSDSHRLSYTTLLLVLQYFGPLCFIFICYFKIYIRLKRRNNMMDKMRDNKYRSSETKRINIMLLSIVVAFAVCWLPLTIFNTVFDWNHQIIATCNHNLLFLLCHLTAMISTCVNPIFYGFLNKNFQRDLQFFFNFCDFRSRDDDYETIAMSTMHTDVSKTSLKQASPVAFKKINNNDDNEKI
How it was run: as §1

[4] = molecular target: T4, Mouse urotensin (mUR2) (Mus musculus, UniProt Q8VIH9); experiment: Radioligand binding, mouse urotensin mUR2 membranes, FlashPlate, [125I]-Urotensin II; conditions: compound at 10 μM; [125I]-Urotensin II, FlashPlate
T4 construct: purchased Perkin Elmer Biosignal
T4 sequence (Q8VIH9 1-385): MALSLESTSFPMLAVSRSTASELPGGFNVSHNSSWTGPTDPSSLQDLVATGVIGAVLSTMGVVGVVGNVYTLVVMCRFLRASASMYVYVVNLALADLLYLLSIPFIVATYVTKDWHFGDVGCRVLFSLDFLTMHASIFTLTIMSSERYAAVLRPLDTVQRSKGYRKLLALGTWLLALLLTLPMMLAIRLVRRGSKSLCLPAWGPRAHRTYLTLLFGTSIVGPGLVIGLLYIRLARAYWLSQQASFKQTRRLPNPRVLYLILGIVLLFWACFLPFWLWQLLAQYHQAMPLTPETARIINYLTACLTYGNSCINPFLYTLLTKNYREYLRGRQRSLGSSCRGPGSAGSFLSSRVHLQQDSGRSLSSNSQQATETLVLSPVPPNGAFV
How it was run: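 Cloned mouse urotensin (mUR2) receptor membranes from Perkin Elmer Biosignal were immobilized in FlashPlate microplates using a proprietary coating. Each well got 19.5 μl buffer, then 0.5 μl of DMSO, reference ligand, or compound. Adding 5 μl of [125I]-Urotensin II, diluted to 5× final concentration in binding buffer, started binding. Plates were sealed with TopSeal-A and incubated 1 hour at room temperature in the dark. Wells were counted for 30 seconds each on a TopCount after a 60-second delay, and percentage inhibition was calculated.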

[5] = molecular target: T5, Human κ-Opioid (KOP) (Homo sapiens, UniProt P41145); experiment: Radioligand binding, human κ-opioid (KOP) membranes, filtration, [3H]-Diprenorphine; conditions: compound at 10 μM; [3H]-Diprenorphine, filtration
T5 construct: purchased Perkin Elmer Biosignal
T5 sequence (P41145 whole entry): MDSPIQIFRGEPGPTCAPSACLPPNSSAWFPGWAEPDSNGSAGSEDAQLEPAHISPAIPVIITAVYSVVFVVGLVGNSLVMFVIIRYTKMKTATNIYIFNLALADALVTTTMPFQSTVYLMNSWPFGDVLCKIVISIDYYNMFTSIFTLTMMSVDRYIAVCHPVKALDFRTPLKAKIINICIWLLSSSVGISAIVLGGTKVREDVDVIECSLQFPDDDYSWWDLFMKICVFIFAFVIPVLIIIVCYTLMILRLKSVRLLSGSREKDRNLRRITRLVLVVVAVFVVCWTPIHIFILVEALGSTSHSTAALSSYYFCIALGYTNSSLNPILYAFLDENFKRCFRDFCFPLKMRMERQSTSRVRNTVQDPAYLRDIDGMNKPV
How it was run: (§2)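 Membranes from cloned human receptors were incubated with compound and radioligand for 1 hour at room temperature. Bound ligand was collected on 0.3% PEI-soaked filters, washed with cold 50 mM Tris-HCl pH 7.4, and counted by scintillation. Percent inhibition was computed against DMSO totals and reference-ligand nonspecific wells.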

[6] = molecular target: T6, Human δ-opioid (DOP) (Homo sapiens, UniProt P41143); experiment: Radioligand binding, human δ-opioid (DOP) membranes, FlashPlate, [3H]-Bremazocine; conditions: compound at 10 μM; [3H]-Bremazocine, FlashPlate
T6 construct: purchased Perkin Elmer Biosignal
T6 sequence (P41143 whole entry): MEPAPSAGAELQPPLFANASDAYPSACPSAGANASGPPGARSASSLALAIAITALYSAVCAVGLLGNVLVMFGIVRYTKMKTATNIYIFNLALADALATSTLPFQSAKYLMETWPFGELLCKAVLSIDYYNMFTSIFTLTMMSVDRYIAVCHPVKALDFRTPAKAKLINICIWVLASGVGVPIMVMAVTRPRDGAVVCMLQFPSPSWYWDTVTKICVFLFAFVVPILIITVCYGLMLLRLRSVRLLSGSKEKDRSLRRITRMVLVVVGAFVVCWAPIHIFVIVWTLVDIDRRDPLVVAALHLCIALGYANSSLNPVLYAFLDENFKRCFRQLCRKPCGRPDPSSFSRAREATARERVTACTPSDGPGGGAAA
How it was run: as §1

[7] = molecular target: T7, Human opioid (ORL1) (Homo sapiens, UniProt P41146); experiment: Radioligand binding, human opioid ORL1 membranes, FlashPlate, [125I]-Nociceptin; conditions: compound at 10 μM; [125I]-Nociceptin, FlashPlate
T7 construct: purchased Perkin Elmer Biosignal
T7 sequence (P41146 whole entry): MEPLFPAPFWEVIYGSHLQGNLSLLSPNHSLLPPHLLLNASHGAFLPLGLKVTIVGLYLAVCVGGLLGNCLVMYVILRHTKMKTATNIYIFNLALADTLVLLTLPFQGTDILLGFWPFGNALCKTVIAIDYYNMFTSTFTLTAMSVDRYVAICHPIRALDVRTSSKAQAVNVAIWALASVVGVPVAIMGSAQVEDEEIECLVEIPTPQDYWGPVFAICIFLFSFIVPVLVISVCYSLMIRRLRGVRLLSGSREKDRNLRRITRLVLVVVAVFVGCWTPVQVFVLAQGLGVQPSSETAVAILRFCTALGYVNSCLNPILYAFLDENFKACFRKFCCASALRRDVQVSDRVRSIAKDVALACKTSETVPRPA
How it was run: as §1

[8] = molecular target: T8, Human neurokinin (NK1) (Homo sapiens, UniProt P25103); experiment: Radioligand binding, human neurokinin NK1 membranes, filtration, [125I]-Substance P; conditions: compound at 10 μM; [125I]-Substance P, filtration
T8 construct: purchased Perkin Elmer Biosignal
T8 sequence (P25103 whole entry): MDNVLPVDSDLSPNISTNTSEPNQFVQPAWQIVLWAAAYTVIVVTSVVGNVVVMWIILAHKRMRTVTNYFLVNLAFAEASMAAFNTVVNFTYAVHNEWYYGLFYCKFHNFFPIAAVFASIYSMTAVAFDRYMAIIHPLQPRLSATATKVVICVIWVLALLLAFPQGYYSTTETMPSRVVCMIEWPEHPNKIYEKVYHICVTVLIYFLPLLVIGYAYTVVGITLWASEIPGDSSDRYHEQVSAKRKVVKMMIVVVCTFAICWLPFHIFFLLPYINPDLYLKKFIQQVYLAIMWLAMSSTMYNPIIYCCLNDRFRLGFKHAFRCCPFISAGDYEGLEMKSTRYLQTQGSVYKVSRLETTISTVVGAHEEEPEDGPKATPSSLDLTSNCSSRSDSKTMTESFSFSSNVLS
How it was run: as §2

[9] = molecular target: T9, Human Melanocortin (MC3) (Homo sapiens, UniProt P41968); experiment: Radioligand binding, human melanocortin MC3 membranes, FlashPlate, [125I]-NDP-αMSH; conditions: compound at 10 μM; [125I]-NDP-αMSH, FlashPlate
T9 construct: purchased Perkin Elmer Biosignal
T9 sequence (P41968 whole entry): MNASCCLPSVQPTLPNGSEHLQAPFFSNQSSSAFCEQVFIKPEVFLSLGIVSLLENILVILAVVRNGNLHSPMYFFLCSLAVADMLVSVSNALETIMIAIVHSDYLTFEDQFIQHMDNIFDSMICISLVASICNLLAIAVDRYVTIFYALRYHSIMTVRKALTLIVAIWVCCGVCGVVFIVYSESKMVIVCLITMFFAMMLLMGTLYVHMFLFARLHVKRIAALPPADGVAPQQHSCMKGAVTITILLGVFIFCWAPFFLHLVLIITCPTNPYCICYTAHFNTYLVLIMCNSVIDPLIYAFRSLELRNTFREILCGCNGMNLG
How it was run: as §1

[10] = molecular target: T10, Human Melanocortin (MC4) (Homo sapiens, UniProt P32245); experiment: Radioligand binding, human melanocortin MC4 membranes, FlashPlate, [125I]-NDP-αMSH; conditions: compound at 10 μM; [125I]-NDP-αMSH, FlashPlate
T10 construct: purchased Perkin Elmer Biosignal
T10 sequence (P32245 whole entry): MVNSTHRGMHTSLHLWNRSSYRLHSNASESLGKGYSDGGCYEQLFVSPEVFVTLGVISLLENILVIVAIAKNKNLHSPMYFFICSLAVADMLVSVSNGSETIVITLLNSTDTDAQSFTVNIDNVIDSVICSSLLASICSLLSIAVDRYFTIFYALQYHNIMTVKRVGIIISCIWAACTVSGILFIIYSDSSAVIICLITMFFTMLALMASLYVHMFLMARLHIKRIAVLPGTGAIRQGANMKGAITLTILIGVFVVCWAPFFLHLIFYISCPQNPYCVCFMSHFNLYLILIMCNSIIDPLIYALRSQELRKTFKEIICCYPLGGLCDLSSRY
How it was run: as §1

[11] = molecular target: T11, Human melanocortin (MC5) (Homo sapiens, UniProt P33032); experiment: Radioligand binding, human melanocortin MC5 membranes, FlashPlate, [125I]-NDP-αMSH; conditions: compound at 10 μM; [125I]-NDP-αMSH, FlashPlate
T11 construct: purchased Perkin Elmer Biosignal
T11 sequence (P33032 whole entry): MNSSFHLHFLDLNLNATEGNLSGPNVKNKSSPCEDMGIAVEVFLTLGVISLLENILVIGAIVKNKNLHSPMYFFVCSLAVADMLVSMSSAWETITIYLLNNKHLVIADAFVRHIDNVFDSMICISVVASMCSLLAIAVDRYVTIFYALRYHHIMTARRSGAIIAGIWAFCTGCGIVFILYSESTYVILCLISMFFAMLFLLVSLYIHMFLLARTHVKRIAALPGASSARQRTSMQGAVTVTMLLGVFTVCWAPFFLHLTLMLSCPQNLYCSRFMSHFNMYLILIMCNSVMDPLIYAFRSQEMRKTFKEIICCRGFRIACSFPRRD
How it was run: as §1

T1 sequence (Q99705 whole entry): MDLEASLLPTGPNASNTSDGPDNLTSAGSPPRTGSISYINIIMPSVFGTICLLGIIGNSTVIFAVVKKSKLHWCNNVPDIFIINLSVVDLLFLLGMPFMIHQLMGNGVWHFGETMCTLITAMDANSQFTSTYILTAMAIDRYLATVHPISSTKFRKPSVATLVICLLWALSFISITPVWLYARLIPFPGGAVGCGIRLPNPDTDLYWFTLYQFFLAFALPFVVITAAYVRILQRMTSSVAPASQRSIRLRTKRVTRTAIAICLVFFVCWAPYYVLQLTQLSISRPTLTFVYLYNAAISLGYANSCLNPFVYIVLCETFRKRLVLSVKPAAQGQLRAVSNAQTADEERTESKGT

COCC1OC(OCc2ccc(Cl)cc2)C(NC(=O)CCN)C(OCc2ccccc2)C1O (stereo not drawn) [compound 195]
A6: inhibition of radioligand binding [1]: − (“−” indicates less than 50% inhibition at 10 μM)
A7: inhibition of radioligand binding [2]: − (“−” indicates less than 50% inhibition at 10 μM)
A9: inhibition of radioligand binding [3]: − (“−” indicates less than 50% inhibition at 10 μM)
A11: inhibition of radioligand binding [4]: − (“−” indicates less than 50% inhibition at 10 μM)
A2: inhibition of radioligand binding [5]: − (“−” indicates less than 50% inhibition at 10 μM)
A1: inhibition of radioligand binding [6]: − (“−” indicates less than 50% inhibition at 10 μM)
A10: inhibition of radioligand binding [7]: − (“−” indicates less than 50% inhibition at 10 μM)
A8: inhibition of radioligand binding [8]: + (“+” indicates greater than 50% inhibition at 10 μM)
A3: inhibition of radioligand binding [9]: − (“−” indicates less than 50% inhibition at 10 μM)
A4: inhibition of radioligand binding [10]: − (“−” indicates less than 50% inhibition at 10 μM)
A5: inhibition of radioligand binding [11]: − (“−” indicates less than 50% inhibition at 10 μM)

COCC1OC(OCc2ccc(Cl)cc2)C(NC(=O)CCNC(=N)N)C(OCc2ccccc2)C1O (stereo not drawn) [compound 196]
A6: inhibition of radioligand binding [1]: − (“−” indicates less than 50% inhibition at 10 μM)
A7: inhibition of radioligand binding [2]: − (“−” indicates less than 50% inhibition at 10 μM)
A9: inhibition of radioligand binding [3]: − (“−” indicates less than 50% inhibition at 10 μM)
A11: inhibition of radioligand binding [4]: − (“−” indicates less than 50% inhibition at 10 μM)
A2: inhibition of radioligand binding [5]: − (“−” indicates less than 50% inhibition at 10 μM)
A1: inhibition of radioligand binding [6]: + (“+” indicates greater than 50% inhibition at 10 μM)
A10: inhibition of radioligand binding [7]: − (“−” indicates less than 50% inhibition at 10 μM)
A8: inhibition of radioligand binding [8]: + (“+” indicates greater than 50% inhibition at 10 μM)
A3: inhibition of radioligand binding [9]: − (“−” indicates less than 50% inhibition at 10 μM)
A4: inhibition of radioligand binding [10]: − (“−” indicates less than 50% inhibition at 10 μM)
A5: inhibition of radioligand binding [11]: − (“−” indicates less than 50% inhibition at 10 μM)

COCC1OC(OCc2ccc(Cl)cc2)C(NC(=O)CCCN)C(OCc2ccccc2)C1O (stereo not drawn) [compound 197]
A6: inhibition of radioligand binding [1]: − (“−” indicates less than 50% inhibition at 10 μM)
A7: inhibition of radioligand binding [2]: − (“−” indicates less than 50% inhibition at 10 μM)
A9: inhibition of radioligand binding [3]: − (“−” indicates less than 50% inhibition at 10 μM)
A11: inhibition of radioligand binding [4]: − (“−” indicates less than 50% inhibition at 10 μM)
A2: inhibition of radioligand binding [5]: − (“−” indicates less than 50% inhibition at 10 μM)
A1: inhibition of radioligand binding [6]: − (“−” indicates less than 50% inhibition at 10 μM)
A10: inhibition of radioligand binding [7]: − (“−” indicates less than 50% inhibition at 10 μM)
A8: inhibition of radioligand binding [8]: + (“+” indicates greater than 50% inhibition at 10 μM)
A3: inhibition of radioligand binding [9]: − (“−” indicates less than 50% inhibition at 10 μM)
A4: inhibition of radioligand binding [10]: − (“−” indicates less than 50% inhibition at 10 μM)
A5: inhibition of radioligand binding [11]: − (“−” indicates less than 50% inhibition at 10 μM)

COCC1OC(OCc2ccc(Cl)cc2)C(NC(=O)CCCNC(=N)N)C(OCc2ccccc2)C1O (stereo not drawn) [compound 198]
A6: inhibition of radioligand binding [1]: − (“−” indicates less than 50% inhibition at 10 μM)
A7: inhibition of radioligand binding [2]: − (“−” indicates less than 50% inhibition at 10 μM)
A9: inhibition of radioligand binding [3]: − (“−” indicates less than 50% inhibition at 10 μM)
A11: inhibition of radioligand binding [4]: − (“−” indicates less than 50% inhibition at 10 μM)
A2: inhibition of radioligand binding [5]: − (“−” indicates less than 50% inhibition at 10 μM)
A1: inhibition of radioligand binding [6]: − (“−” indicates less than 50% inhibition at 10 μM)
A10: inhibition of radioligand binding [7]: − (“−” indicates less than 50% inhibition at 10 μM)
A8: inhibition of radioligand binding [8]: + (“+” indicates greater than 50% inhibition at 10 μM)
A3: inhibition of radioligand binding [9]: − (“−” indicates less than 50% inhibition at 10 μM)
A4: inhibition of radioligand binding [10]: − (“−” indicates less than 50% inhibition at 10 μM)
A5: inhibition of radioligand binding [11]: + (“+” indicates greater than 50% inhibition at 10 μM)

COCC1OC(OCc2ccc(Cl)cc2)C(NC(=O)CN)C(OCc2ccc(Cl)cc2)C1O (stereo not drawn) [compound 199]
A6: inhibition of radioligand binding [1]: − (“−” indicates less than 50% inhibition at 10 μM)
A7: inhibition of radioligand binding [2]: − (“−” indicates less than 50% inhibition at 10 μM)
A9: inhibition of radioligand binding [3]: − (“−” indicates less than 50% inhibition at 10 μM)
A11: inhibition of radioligand binding [4]: − (“−” indicates less than 50% inhibition at 10 μM)
A2: inhibition of radioligand binding [5]: − (“−” indicates less than 50% inhibition at 10 μM)
A1: inhibition of radioligand binding [6]: − (“−” indicates less than 50% inhibition at 10 μM)
A10: inhibition of radioligand binding [7]: − (“−” indicates less than 50% inhibition at 10 μM)
A8: inhibition of radioligand binding [8]: + (“+” indicates greater than 50% inhibition at 10 μM)
A3: inhibition of radioligand binding [9]: − (“−” indicates less than 50% inhibition at 10 μM)
A4: inhibition of radioligand binding [10]: − (“−” indicates less than 50% inhibition at 10 μM)
A5: inhibition of radioligand binding [11]: − (“−” indicates less than 50% inhibition at 10 μM)

COCC1OC(OCc2ccc(Cl)cc2)C(NC(=O)CNC(=N)N)C(OCc2ccc(Cl)cc2)C1O (stereo not drawn) [compound 200]
A6: inhibition of radioligand binding [1]: − (“−” indicates less than 50% inhibition at 10 μM)
A7: inhibition of radioligand binding [2]: − (“−” indicates less than 50% inhibition at 10 μM)
A9: inhibition of radioligand binding [3]: − (“−” indicates less than 50% inhibition at 10 μM)
A11: inhibition of radioligand binding [4]: − (“−” indicates less than 50% inhibition at 10 μM)
A2: inhibition of radioligand binding [5]: − (“−” indicates less than 50% inhibition at 10 μM)
A1: inhibition of radioligand binding [6]: − (“−” indicates less than 50% inhibition at 10 μM)
A10: inhibition of radioligand binding [7]: − (“−” indicates less than 50% inhibition at 10 μM)
A8: inhibition of radioligand binding [8]: + (“+” indicates greater than 50% inhibition at 10 μM)
A3: inhibition of radioligand binding [9]: + (“+” indicates greater than 50% inhibition at 10 μM)
A4: inhibition of radioligand binding [10]: + (“+” indicates greater than 50% inhibition at 10 μM)
A5: inhibition of radioligand binding [11]: + (“+” indicates greater than 50% inhibition at 10 μM)
